Laboratory results: US12655379B2, “Device for evaluation of chemical substance and method for evaluation of chemical substance” (SHINKO CHEMICAL CO., LTD., priority 2017, dated 2026)

Assays:
[1] = system: HepG2-CYP3A4 cells; experiment: Perfusion test of first pass effect, liver compartment (HepG2-CYP3A4 cells downstream of Caco-2 insert); conditions: 240 μL of 62.5 μg/mL substrate solution in insert, HBSS perfusion, sampled every 30 minutes for 180 minutes, LC-MS-MS, FIG. 20
Experimental: (§1) In the present example, small intestine epithelial cells and liver cells were disseminated in separate compartments, and a first pass effect of a chemical substance was evaluated by using a device in which the respective compartments were connected via a flow path system. In the device described with reference to FIG. 1, Caco-2 cells were disseminated as model cells of the small intestine epithelial cells, and HepG2-CYP3A4 cells obtained by a genetic manipulation to excessively develop CYP3A4 in HepG2 cells were disseminated as model cells of the liver cells. Thus, the first pass effects (absorption and metabolism) of the chemical substance on two types of cells (the small intestine epithelial cells and the liver cells) were simultaneously evaluated.
(§2) • a) Caco-2 Cell • i) 0.4 mL of cell suspension was added to an inner side (an apical side) of a porous membrane filter at a density of 0.5 to 5×10^5 cells/cm^2 (e.g., 0.6×10^5 cells/cm^2). • ii) 0.8 mL of medium was added to an outer side (a basal side) of the porous membrane filter. • iii) The cells were cultured in a carbon dioxide gas incubator (5% of CO2 at 37° C. under humidification conditions) for about 3 weeks. An apical-side medium and a basal-side medium were appropriately changed.
(§3) Prior to use in a test, an electric resistance of a single layer film was measured by using an electric resistance measuring device.

[2] = system: Caco-2 cells; experiment: Perfusion test of first pass effect, small intestine compartment (Caco-2 single layer film in insert); conditions: 240 μL of 62.5 μg/mL substrate solution in insert, HBSS perfusion, sampled every 30 minutes for 180 minutes, LC-MS-MS, FIG. 19
Experimental: as §1, §2, §3

Question: For `Cc1ncc2n1-c1ccc(Cl)cc1C(c1ccccc1F)=NC2` [midazolam, Midazolam], which “permeation amount of midazolam” value [1] is on record?
Answer: successive increase

Question: What about the “permeation amount of midazolam permeated through the Caco-2 single layer film” value [2] of the same molecule?
Answer: successive increase
